Literature values, collected in patent publication US20180271949A1, “THERAPEUTIC TREATMENT FOR NEUROTROPHIC KERATOPATHY” (priority 2017, published 2018).

How the values were obtained:
[1] = tested on: corneal epithelium wound healing; conditions: with substance-P; several pre-clinical studies; Nishida 2009
decubitus ulcers = conditions: topical; Van Ort 1976
[2] = tested on: experimentally-induced superficial skin wounds; conditions: topical; diabetic and non-diabetic individuals; Greenway 1999
corneal abrasions = conditions: topical, diabetic rats
[3] = tested on: sub-basal plexus corneal nerves; conditions: topical; diabetic mice; Chen 2013
[4] = tested on: cultured sheets of corneal epithelial cells; conditions: Shanley 2004
corneal ulcers = conditions: systemic administration; humans; Aynsley 1945

Substance | promotion of corneal epithelium wound healing [1] | healing of decubitus ulcers (decubitus ulcers) | healing of experimentally-induced superficial skin wounds [2] | corneal sensation (corneal abrasions; Zagon 2007) | wound healing after corneal abrasions (corneal abrasions; Zagon 2007, Klocek 2009) | loss of sub-basal plexus corneal nerves [3] | cell migration and closure of artificial wounds [4] | healing of corneal ulcers (corneal ulcers)
IGF-1: Insulin-like growth factor-1, modulator of corneal wound healing | act synergistically with substance-P | – | – | – | – | – | – | –
insulin: insulin, topical, systemic or added in vitro, as used in cited literature studies | – | improve healing | improve healing | improves corneal sensation | improves wound healing | slow the loss | promoted cell migration and closure of artificial wounds | improved healing
